# Source: article PMC2946308, “Sialic acid transport and catabolism are cooperatively regulated by SiaR and CRP in nontypeable Haemophilus influenzae” (BMC Microbiology, 2010)
# Molecular target: T1, SiaR (Haemophilus influenzae, UniProt P44540)
# T1 construct: gene HI_0143; C-terminal His-tag, plasmid pJJ185 (earlier work), expressed in E. coli, tag not reported cut
# Assay: EMSA with nan-siaPT intergenic DNA probe
# Type: binding
# Conditions: 100 μM GlcN-6P; co-activator; serial dilutions of SiaR; 15 nM DNA probe; pH 7.4, room temperature
# T1 sequence (P44540 whole entry): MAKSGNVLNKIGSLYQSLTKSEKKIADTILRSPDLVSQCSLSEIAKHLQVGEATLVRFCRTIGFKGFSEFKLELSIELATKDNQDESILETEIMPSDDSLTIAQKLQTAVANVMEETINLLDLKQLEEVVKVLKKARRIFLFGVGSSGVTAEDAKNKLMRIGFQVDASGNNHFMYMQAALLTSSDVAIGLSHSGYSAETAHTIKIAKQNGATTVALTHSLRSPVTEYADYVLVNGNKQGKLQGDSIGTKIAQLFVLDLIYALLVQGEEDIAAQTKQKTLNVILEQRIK
smiles,measurement,value
N[C@H]1C(O)O[C@H](COP(=O)(O)O)[C@@H](O)[C@@H]1O (stereo partly shown) [GlcN-6P],EMSA with nan-siaPT intergenic DNA probe,SiaR bound the probe and GlcN-6P slightly increased the binding affinity
